Source: patent publication EP4786465A1, “NOVEL COMPOUND, AND PHARMACEUTICAL COMPOSITION FOR PREVENTION OR TREATMENT OF CANCER OR TUMORS COMPRISING SAME” (Daewoong Pharmaceutical Co., Ltd., priority 2023, dated 2025)

What was measured:
Type in all cases: cell-based
[1] = system: transcription factor TEAD; test: Activity inhibition test of transcription factor TEAD (ONE-Glo Luciferase assay, Hippo Pathway TEAD reporter-MCF7 recombinant cell line); details: Homo sapiens; TEAD Reporter-MCF7 cells, 24 hours treatment, luciferase luminescence
Description: The transcription factor TEAD activity of the compounds prepared in the Examples was measured by the ONE-Glo™ Luciferase assay (Promega, Catalog #E6110) method using the Hippo Pathway TEAD reporter-MCF7 recombinant cell line (BPS Bioscience, Catalog #60618). Specifically, the TEAD Reporter-MCF7 cell line contains the firefly luciferase gene whose expression is regulated under the control of TEAD response elements in the MCF7, which is a human breast cancer cell line. In the cell line, a non-phosphorylated YAP/TAZ exists in the nucleus in a non-stressed condition, which continuously induces expression of the luciferase reporter. TEAD Reporter-MCF7 cells were prepared in 100 µL of cell culture medium (MEM medium, 10% FBS, 1% P/S, 400 µg/mL Geneticin, 1% […], 1 mM NA pyruvate, 10 µg/mL Insulin) in a white clear bottom 96-well microplate. The prepared plate was incubated in a 5% CO2 incubator at 37°C for 24 hours, and then the previously prepared compounds of Examples were finally treated at concentrations of 0.0005, 0.005, 0.05, 0.5 and 5 µM, which were repeated three times for all treatment solutions. The plates treated with the compounds of Examples were incubated in a 5% CO2 incubator at 37°C for 24 hours. 100 µL/well of the substrate aqueous solution containing luciferin was added to a white clear-bottom 96 well microplate, thereby initiating an enzyme reaction. The reaction was performed at room temperature for 5 minutes, and the luminescence (integration time 1000 ms) was measured using a Flexstation3 multi-mode microplate reader. In accordance with the instructions for the ONE-Glo™ Luciferase Assay, the luciferase enzyme activity, which represents the activity of the transcription factor TEAD, was measured by a chemiluminescence method, and the inhibitory activity of the compound according to the present disclosure was calculated. The results of each compound were analyzed using Microsoft Excel, and the IC50 values were calculated by GraphPad Prism software.

NCI-H226 = test: Cell growth inhibition test (CellTiter-Glo Luminescent Cell Viability), NCI-H226; details: Homo sapiens; NCI-H226 cells, CellTiter-Glo; read-out: growth IC50 H226
Description: (§1) The cell growth for the compounds prepared in Examples was measured by CellTiter-Glo® Luminescednt Cell Viability (Promega, Catalog #G7571) method using NCI-H226 (addexbio), NCI-H28 (Korea Cell Line Bank) cell lines. This evaluation method is a method in which when luciferase enzyme is activated by ATP flowing out from living cells, it reacts with a luciferin substrate, and the enzyme activity at this time is measured to confirm cell viability.
(§2) Specifically, NCI-H226, and NCI-H28 cells were prepared in 100 µL of cell culture medium (RPMI medium, 10% FBS, 1% P/S, 4.5 g/L D-Glucose, 2.383 g/L HEPES Buffer, L-Glutamine, 1.5 g/L Sodium Bicarbonate, 110 mg/L Sodium pyruvate) in a white clear bottom 96-well microplate. The prepared plate was incubated in a 5% CO2 incubator at 37°C for 24 hours, and then the previously prepared compounds of Examples were finally treated at concentrations of 0.0005, 0.005, 0.05, 0.5 and 5 µM, which was repeated three times for all treatment solutions. The plates treated with the compounds of Examples were incubated in a 5% CO2 incubator at 37°C. 100 µL/well of the substrate aqueous solution containing luciferin was added to a white clear-bottom 96 well microplate, thereby initiating an enzyme reaction. The reaction was performed at room temperature in the dark for 10 minutes, and the luminescence was measured using a Flexstation3 multi-mode microplate reader. In accordance with the instructions for the CellTiter-Glo™ Luminescednt Cell Viability, the luciferase enzyme activity, which represents the amount of ATP, was measured by a chemiluminescence method, and the inhibitory activity of the compounds according to the present disclosure was calculated. The results of each compound were analyzed using Microsoft Excel, and the IC50 values were calculated using GraphPad Prism software.

NCI-H28 = test: Cell growth inhibition test (CellTiter-Glo Luminescent Cell Viability), NCI-H28; details: Homo sapiens; NCI-H28 cells, CellTiter-Glo; read-out: growth IC50 H28
Description: as §1, §2

IC50 [1] [nM]	IC50 (NCI-H226) [nM]	IC50 (NCI-H28) [nM]	SMILES
90.2	95	> 5000	C=CC(=O)N1CCc2c(ccc(Nc3cc(Cl)cc(Cl)c3)c2-c2cn(C)cn2)C1 [Example 21, 1-(6-((3,5-dichlorophenyl)amino)-5-(1-methyl-1H-imidazol-4-yl)-3,4-dihydroisoquinolin-2(1H)-yl)prop-2-en-1-one]
15.4	80	> 5000	C=CC(=O)N1CCc2c(ccc(Nc3ccc(C(F)(F)F)cc3)c2-c2cn(CC)cn2)C1 [Example 24, 1-(5-(1-ethyl-1H-imidazol-4-yl)-6-((4-(trifluoromethyl)phenyl)amino)-3,4-dihydroisoquinolin-2(1H)-yl)prop-2-en-1-one]
